Test results: ChEMBL document CHEMBL1201862, “PubChem BioAssay data set” (2004)
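Method: 48-hour compound exposure of cells in 96-well plates, five concentrations, linear interpolation of endpoints. GI50 marks 50% less growth.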 Active and inactive are the calls of the source. No stated cut-off is given here; in the data, active = GI50 up to about 1.1 µM and inactive = higher.

Assays:
Assay in all cases: NCI-60 cell line screen, 48 h
HOP-62 = system: HOP-62
HCT-15 = system: HCT-15
MDA-MB-435 = system: MDA-MB-435
COLO 205 = system: COLO 205
NCI/ADR-RES = system: NCI/ADR-RES
DU-145 = system: DU-145
SK-MEL-5 = system: SK-MEL-5
OVCAR-8 = system: OVCAR-8
BT-549 = system: BT-549
SF-295 = system: SF-295
SF-268 = system: SF-268
LOX IMVI = system: LOX IMVI
OVCAR-5 = system: OVCAR-5
SW-620 = system: SW-620
SK-MEL-28 = system: SK-MEL-28
PC-3 = system: PC-3
HCC 2998 = system: HCC 2998
EKVX = system: EKVX
NCI-H522 = system: NCI-H522
RXF 393 = system: RXF 393

Structure (SMILES) | GI50 (HOP-62) | GI50 (HCT-15) [µM] | GI50 (MDA-MB-435) | GI50 (COLO 205) | GI50 (NCI/ADR-RES) | GI50 (DU-145) | GI50 (SK-MEL-5) | GI50 (OVCAR-8) | GI50 (BT-549) | GI50 (SF-295) | GI50 (SF-268) | GI50 (LOX IMVI) | GI50 (OVCAR-5) | GI50 (SW-620) | GI50 (SK-MEL-28) | GI50 (PC-3) | GI50 (HCC 2998) | GI50 (EKVX) | GI50 (NCI-H522) | GI50 (RXF 393)
COc1ccc(-c2nc3ncccn3c2-c2ccc(S(C)(=O)=O)cc2)cc1 | > 100 µM (inactive) | > 100 | 38 µM (inactive) | > 100 µM (inactive) | > 100 µM (inactive) | > 100 µM (inactive) | 48.2 µM (inactive) | > 100 µM (inactive) | > 100 µM (inactive) | > 100 µM (inactive) | 35.2 µM (inactive) | > 100 µM (inactive) | > 100 µM (inactive) | > 100 µM (inactive) | > 100 µM (inactive) | > 100 µM (inactive) | – | – | – | –
O=C(O)CCCn1nnc2c(=O)[nH][nH]c(=O)c21 | > 100 µM (inactive) | > 100 | > 100 µM (inactive) | > 100 µM (inactive) | > 100 µM (inactive) | > 100 µM (inactive) | > 100 µM (inactive) | > 100 µM (inactive) | > 100 µM (inactive) | > 100 µM (inactive) | – | > 100 µM (inactive) | > 100 µM (inactive) | – | > 100 µM (inactive) | > 100 µM (inactive) | > 100 µM (inactive) | > 100 µM (inactive) | – | –
c1ccc2c(c1)SC1=C(SC(=C3SC4=C(S3)Sc3ccccc3S4)S1)S2 | 36.9 µM (inactive) | > 100 | > 100 µM (inactive) | > 100 µM (inactive) | > 100 µM (inactive) | > 100 µM (inactive) | > 100 µM (inactive) | > 100 µM (inactive) | > 100 µM (inactive) | > 100 µM (inactive) | > 100 µM (inactive) | > 100 µM (inactive) | > 100 µM (inactive) | > 100 µM (inactive) | > 100 µM (inactive) | > 100 µM (inactive) | > 100 µM (inactive) | > 100 µM (inactive) | > 100 µM (inactive) | –
CO/C(=N\N=C\c1ccc(OC)c(OC)c1)c1ccncc1 | > 10 µM (inactive) | > 10 | – | > 10 µM (inactive) | > 10 µM (inactive) | > 10 µM (inactive) | > 10 µM (inactive) | > 10 µM (inactive) | > 10 µM (inactive) | – | > 10 µM (inactive) | > 10 µM (inactive) | – | > 10 µM (inactive) | – | – | > 10 µM (inactive) | > 10 µM (inactive) | – | –
Cc1ccc(C2SCC(=O)N2c2ccc(-c3ccc(-n4c(-c5ccccc5)nc5ccccc5c4=O)cc3)cc2)cc1 (configuration not stated) | > 100 µM (inactive) | 62.5 | 88.3 µM (inactive) | 81.8 µM (inactive) | 91.4 µM (inactive) | > 100 µM (inactive) | 41.1 µM (inactive) | > 100 µM (inactive) | 60.7 µM (inactive) | > 100 µM (inactive) | 33.8 µM (inactive) | 54.1 µM (inactive) | > 100 µM (inactive) | > 100 µM (inactive) | > 100 µM (inactive) | 42.4 µM (inactive) | > 100 µM (inactive) | 53.3 µM (inactive) | 37.2 µM (inactive) | –
COc1ccc(CC2C3=C(CCN2C(=O)C2CCC2)CC2(CC3)OCCO2)cc1O (configuration not stated) | 33.6 µM (inactive) | 14.9 | 6.7 µM (inactive) | 22.8 µM (inactive) | 16.3 µM (inactive) | 26.5 µM (inactive) | 30.3 µM (inactive) | 58.5 µM (inactive) | – | 20.5 µM (inactive) | 35.2 µM (inactive) | > 100 µM (inactive) | > 100 µM (inactive) | 31.3 µM (inactive) | 55.2 µM (inactive) | 31.3 µM (inactive) | 28.2 µM (inactive) | 38.8 µM (inactive) | 17.9 µM (inactive) | 15.7 µM (inactive)
C/C(=C\c1ccc2c(c1)OCO2)[N+](=O)[O-] | 3.56 µM (inactive) | 1.96 | 2.21 µM (inactive) | 1.66 µM (inactive) | 6.04 µM (inactive) | 2.23 µM (inactive) | 1.91 µM (inactive) | 2.77 µM (inactive) | – | 2.85 µM (inactive) | 3.44 µM (inactive) | 0.315 µM (active) | 3.96 µM (inactive) | 2.59 µM (inactive) | 2.74 µM (inactive) | 2.64 µM (inactive) | 3.54 µM (inactive) | 4.08 µM (inactive) | 1.64 µM (inactive) | 1.46 µM (inactive)
COc1ccc(-n2cnc3c2=NC(C)(C)NC=3C(N)=O)c(OC)c1 | > 100 µM (inactive) | > 100 | > 100 µM (inactive) | > 100 µM (inactive) | > 100 µM (inactive) | > 100 µM (inactive) | > 100 µM (inactive) | > 100 µM (inactive) | – | > 100 µM (inactive) | > 100 µM (inactive) | > 100 µM (inactive) | > 100 µM (inactive) | > 100 µM (inactive) | > 100 µM (inactive) | > 100 µM (inactive) | > 100 µM (inactive) | > 100 µM (inactive) | > 100 µM (inactive) | > 100 µM (inactive)
Clc1sc(Cl)c2c1[C@@H](Cl)C[C@@H]2Cl | > 100 µM (inactive) | > 100 | 92 µM (inactive) | > 100 µM (inactive) | > 100 µM (inactive) | > 100 µM (inactive) | > 100 µM (inactive) | > 100 µM (inactive) | > 100 µM (inactive) | > 100 µM (inactive) | 62.1 µM (inactive) | 49.4 µM (inactive) | > 100 µM (inactive) | 57.1 µM (inactive) | 84.9 µM (inactive) | – | 63.4 µM (inactive) | 62.5 µM (inactive) | 18.9 µM (inactive) | –
C/C(=N/NC(=S)Nc1ccc(Cl)cc1)c1cccc(/C(C)=N\NC(=S)Nc2ccc(Cl)cc2)n1 | 2.76 µM (inactive) | 2.47 | 12.3 µM (inactive) | 3.56 µM (inactive) | 2.59 µM (inactive) | 26.1 µM (inactive) | 1.86 µM (inactive) | 1.85 µM (inactive) | – | 3.34 µM (inactive) | 23.8 µM (inactive) | 4.58 µM (inactive) | 20 µM (inactive) | 4.12 µM (inactive) | 23.2 µM (inactive) | 3.47 µM (inactive) | 12.2 µM (inactive) | 5.45 µM (inactive) | 4.29 µM (inactive) | 4.01 µM (inactive)
O=C(O)c1ccc(NNc2cc(=O)[nH]c(=O)[nH]2)cc1 | > 100 µM (inactive) | > 100 | – | > 100 µM (inactive) | > 100 µM (inactive) | > 100 µM (inactive) | > 100 µM (inactive) | > 100 µM (inactive) | > 100 µM (inactive) | > 100 µM (inactive) | > 100 µM (inactive) | > 100 µM (inactive) | > 100 µM (inactive) | > 100 µM (inactive) | > 100 µM (inactive) | 24.4 µM (inactive) | > 100 µM (inactive) | > 100 µM (inactive) | – | > 100 µM (inactive)
CCOC(=O)CCC(NC(=O)c1ccc(Nc2cnc3cc(C(F)(F)F)ccc3n2)cc1)C(=O)OCC (configuration not stated) | 11 µM (inactive) | > 100 | > 100 µM (inactive) | 80.4 µM (inactive) | > 100 µM (inactive) | > 100 µM (inactive) | > 100 µM (inactive) | 27.2 µM (inactive) | 18.5 µM (inactive) | 12.8 µM (inactive) | 14.1 µM (inactive) | > 100 µM (inactive) | > 100 µM (inactive) | > 100 µM (inactive) | > 100 µM (inactive) | – | > 30.6 µM (inactive) | > 84.7 µM (inactive) | 30.3 µM (inactive) | 3.55 µM (inactive)
CCOC1OCCCC1Br (configuration not stated) | > 100 µM (inactive) | > 100 | > 100 µM (inactive) | > 100 µM (inactive) | > 100 µM (inactive) | > 100 µM (inactive) | > 100 µM (inactive) | > 100 µM (inactive) | – | > 100 µM (inactive) | > 100 µM (inactive) | > 100 µM (inactive) | > 100 µM (inactive) | > 100 µM (inactive) | > 100 µM (inactive) | > 100 µM (inactive) | > 100 µM (inactive) | > 100 µM (inactive) | > 100 µM (inactive) | > 100 µM (inactive)
CCOc1ncn(-c2ccc(NC(=S)NC3OC(CO)C(O)C(O)C3O)cc2)n1 (configuration not stated) | > 100 µM (inactive) | > 100 | > 100 µM (inactive) | > 100 µM (inactive) | – | > 100 µM (inactive) | > 100 µM (inactive) | > 100 µM (inactive) | > 100 µM (inactive) | > 100 µM (inactive) | > 100 µM (inactive) | > 100 µM (inactive) | > 100 µM (inactive) | > 100 µM (inactive) | > 100 µM (inactive) | > 100 µM (inactive) | > 100 µM (inactive) | > 100 µM (inactive) | > 100 µM (inactive) | –
C=CC1CCC[N+]1(CC(=O)OCC)Cc1ccccc1 (configuration not stated) | > 100 µM (inactive) | > 100 | > 100 µM (inactive) | > 100 µM (inactive) | > 100 µM (inactive) | > 100 µM (inactive) | > 100 µM (inactive) | > 100 µM (inactive) | > 100 µM (inactive) | > 100 µM (inactive) | > 100 µM (inactive) | – | > 100 µM (inactive) | > 100 µM (inactive) | > 100 µM (inactive) | > 100 µM (inactive) | > 100 µM (inactive) | > 100 µM (inactive) | – | –
CN(C)c1ccc(C2CC(C)(O)Oc3cc4c(cc32)OCO4)cc1 (configuration not stated) | 62.4 µM (inactive) | 29.9 | 13.6 µM (inactive) | 23.4 µM (inactive) | 35.2 µM (inactive) | > 100 µM (inactive) | 30.6 µM (inactive) | 29.5 µM (inactive) | – | 29.1 µM (inactive) | 46.7 µM (inactive) | 31.6 µM (inactive) | 75.9 µM (inactive) | 35.3 µM (inactive) | 36.9 µM (inactive) | 39.4 µM (inactive) | 32.4 µM (inactive) | 48.9 µM (inactive) | 19.1 µM (inactive) | 32.7 µM (inactive)
